According to US11246873B2, “Directed differentiation of oligodendrocyte precursor cells to a myelinating cell fate” (The Scripps Research Institute, priority 2011, dated 2022):
Entries after “also recorded” stand apart in the source; their conditions may differ. Read-outs that look alike come from different tables or passages of the source.

Key:
[1] = system: dopamine D2 and D3 receptor; type: cell-based, rat
Source text: Error bars indicate standard deviations of 3 replicate measurements.
(§1) OPCs express mAChRs, predominantly subtypes M1, M3, and M5 (F. Ragheb et al., J Neurochem, 77, 1396 (2001)). […] Activation of M1 and M3 mAChRs is coupled to downstream signal transduction events through phospholipase C, which results in increased intracellular calcium concentrations (F. Ragheb et al., J Neurochem, 77, 1396 (2001)) (FIG. 23C). M2 and M4 mAChR activation inhibits adenylatecyclase, leading to decreased intracellular cAMP levels (C. C. Felder, FASEB J, 9, 619 (1995); M. Lopez-Ilasaca et al., Science, 275, 394 (1997)). […] Acetylcholine is a known regulator of OPC proliferation and, as such, muscarinic receptor subtypes represent a reasonable class of therapeutic targets for the modulation of OPC proliferation and differentiation (F. De Angelis et al., Dev Neurobiol, (2011)).

[2] = system: total splenocytes stimulated with CD3; assay: T-cell activation (CD69, CD25) and proliferation (CFSE) in vitro; type: cell-based, mouse; conditions: versus DMSO
Source text: (A-F) Total splenocytes were isolated from mice and stimulated with CD3 and analyzed by flow cytometry for expression of T-cell activation markers CD69 and CD25 and T-cell proliferation using CFSE. (A) Unstimulated cells. (B) DMSO treated cells. […] The numbers represent percentage gated populations positive for the given marker.
(§2) The primary immunological processes involved in MS and EAE are T-cell mediated and the primary treatment paradigms are based on immunomodulatory drugs (T. Kopadze et al., Arch Neurol, 63, 1572 (2006); J. M. Greer et al., J Immunol, 180, 6402 (2007), M. P. Pender and J. M. Greer, curr Allergy Asthma Rep, 7, 285 (2007)).

[3] = system: OPCs; assay: qRT-PCR of cell cycle genes in OPCs; type: cell-based, rat; conditions: benztropine 1.5 uM
Source text: as §1

[4] = system: OPCs; assay: Western blot of MBP and MOG in compound treated OPCs; type: cell-based, rat; conditions: OPCs treated 6 days
Source text: FIG. 2A-C. Neurotransmitter receptor modulating agents induce the differentiation of OPCs to a myelinating oligodendrocyte cell fate. (A) Western blot analysis of OPCs treated with compounds at EC90 concentrations for 6 days. Total protein was isolated from cell pellets and probed for myelin basic protein (MBP) and myelin oligodendrocyte glycoprotein (MOG) using specific antibodies. (B-C) Quantitative RT-PCR (qRT-PCR) analysis of OPCs treated with compounds at EC90 concentrations for 6 days. Total RNA was isolated from cell pellets and reverse transcribed. MBP and MOG expression was quantified using specific probes and Taqman-based qRT-PCR. Expression was normalized to the internal controls β-actin and GAPDH. Fold change in gene expression over DMSO treated control cells is plotted for MBP (B) and MOG (C).
FIG. 13. […] After 6 days in culture, cells were analyzed for MBP and MOG expression by Western blot.

[5] = system: caspase 3; assay: Western blot of caspase 3 and cleaved caspase 3 in differentiated OPCs; conditions: benztropine 1.5 uM, thyroid hormone 1 uM, 6 days
Source text: FIG. 32. Western blot analysis of cleaved caspase activity in differentiated OPCs. […] Total protein was isolated and analyzed by Western blot using a specific antibody for the expression of caspase 3 and cleaved caspase 3.

[6] = system: spinal cord of EAE mice; assay: Histology of spinal cord sections from EAE mice (LFB, H&E, GST-π, NG2); type: in vivo, mouse; conditions: for LFB (myelin) staining in areas infiltrated by lymphocytes / lymphocyte / immune cell infiltration (H&E): 10 mg/kg, relapse phase
Source text: FIG. 26. […] Spinal cords were isolated from mice representative of the average group scores during the relapse phase of EAE, sectioned and stained with Luxol Fast Blue and H&E (left panel) and Luxol Fast Blue only (right panel). Arrows point to regions of lymphocyte infiltration.

[7] = T-cell dependent and independent B-cell responses to TNP-KLH, TNP-LPS, TNP-Ficoll (serum IgG, IgM ELISA); type: in vivo, mouse; conditions: 10 mg/kg
Experimental: Serum was isolated at various time points and IgG and IgM levels were measured by ELISA. […] Error bars represent standard deviations from 3 replicate ELISAs performed on samples from 5 mice in each treatment group.
as §2

[8] = system: C57BL/6 mice fed cuprizone; conditions: for remyelination / myelin staining in the corpus callosum versus vehicle, week 2: 2 weeks after cuprizone withdrawal
Source text: Data is represented in terms of threshold bins on the grey scale (0-50) as described. Error bars represent standard deviations of at least 6 corpus callosum regions.
(B) Images were converted to a 256 shade grey scale. (C) The 256 shades of grey were divided into 5 bins of 50 shades each. Number of objects in the corpus callosum region in each bin were counted using Image-Pro plus.
By administering drugs at the time when a cuprizone-free diet is reintroduced, the efficacy of promyelinating agents can be examined by evaluating the relative kinetics of OPC dependent remyelination (T. Skripuletz et al., Am J Pathol, 172, 1053 (2008)). […] Drug or vehicle treated mice were sacrificed in groups of 5 weekly for 5 weeks, following drug treatment, and remyelination was quantitatively evaluated by staining the corpus callosum regions of harvested brains with LFB (FIG. 9A, B).

[9] = spinal cord sections of EAE mice

CN1[C@@H]2CC[C@H]1C[C@@H](OC(c1ccccc1)c1ccccc1)C2 [benztropine]
effect of quinpirole or haloperidol on benztropine induced differentiation / dopamine D2 and D3 receptor signaling [1]: neither the dopamine receptor antagonist haloperidol, nor the dopamine receptor agonist quinpirole affected; also recorded: no effect
T-cell activation (CD69, CD25) [2]: no effect
T-cell proliferation (CFSE) [2]: no effect
transcript levels of cyclin D1, cyclin D2, c-Fos, c-Jun [3]: significantly decreased; also recorded: downregulation in cell cycle genes such as Cyclin D1, Cyclin D2, c-Fos, c-Jun
MBP and MOG expression (Western blot) [4]: positive
MBP and MOG expression (Western blot) ([4]; listed as Benztropine): induces differentiation of OPCs to mature oligodendrocytes
expression of cleaved caspase 3 [5]: No expression of cleaved caspase 3 was detected
LFB (myelin) staining in areas infiltrated by lymphocytes [6]: a large number of immune cell infiltrated areas stained positive for LFB
lymphocyte / immune cell infiltration (H&E) [6]: significant infiltration by H&E reactive immune cells
LFB (myelin) staining in areas infiltrated by lymphocytes ([6]; listed as Benztropine): significantly increased LFB staining
lymphocyte / immune cell infiltration (H&E) ([6]; listed as Benztropine): does not block lymphocyte infiltration
number of GST-π positive mature oligodendrocytes ([6]; spinal cord of EAE mice, vehicle ~500): 1100 per field
GST-π positive cells versus vehicle [6, 9]: increased GST-π positive cells
number of NG2 positive cells versus vehicle [6, 9]: did not differ significantly; also recorded: no change
TNP-Ficoll induced B-cell responses (serum IgM and IgG) [7]: no effect on IgG and IgM production
TNP-KLH induced B-cell responses (serum IgM and IgG) [7]: no effect on IgG and IgM production
TNP-LPS induced B-cell responses (serum IgM and IgG) [7]: no effect on IgG and IgM production
remyelination / myelin staining in the corpus callosum versus vehicle, week 2 ([8]; 10 mg/kg i.p.): significant increase in myelin staining in the corpus callosum
remyelination / myelin staining in the corpus callosum versus vehicle, week 2 ([8]; 10 mg/kg i.p., listed as benzatropine): increased remyelination
increase in myelin staining in the corpus callosum versus vehicle ([8]; 10 mg/kg i.p., 2 weeks after drug treatment): ~2 fold
myelin staining versus vehicle at later time points ([8]; 10 mg/kg i.p., up to 5 weeks): significant differences were not observed
toxicity to mature oligodendrocytes ([8]; mouse, in vivo): not toxic to mature oligodendrocytes
